Read-outs that look alike come from different tables or passages of the source.
Assays:
[1] = tested on: rabbit aorta smooth muscle cells; experiment: cGMP levels in rabbit aorta smooth muscle cells; assay type: cell-based; conditions: for guanosine 3′,5′-cyclic monophosphate levels: 0.1, 1.0, 10, 100 μM, in the presence of IBMX (100 μM)
[2] = tested on: intracavernous pressure of rabbits; conditions: for DT, duration of tumescence / ΔICP, peak increased intracavernous pressure: n=8; for intracavernous pressure, dose dependence: 0.2, 0.4, 0.6 mg kg−1 intracavernous
Method: Measurement of intracavernous pressure Male rabbits were used for the investigation. After sedation with an intramuscular injection of ketamine (10 mg kg^−1), the rabbits were anaesthetized with intraperitoneal pentobarbital (30 mg kg^−1) and maintained with 10 mg kg^−1 if needed. The animals breathed spontaneously. The rabbits were then placed in the supine position, and the body temperature was maintained at 37° C. The femoral artery was cannulated for continuous monitoring of systemic arterial pressure (SAP) and heart rate (HR) via a pressure transducer (Spectramed, Model P10EZ, U.S.A.). Under sterile conditions, the skin overlying the penis was incised and the corpora cavernosum was exposed at the root of the penis. A 25-gunge needle was inserted into the corpus cavernosum smooth muscles for pressure recording. The needle was connected to a three-way stopcock, thus permitting the intracavernous injection of the drugs. The tube was filled with heparinized saline (50 IU 2 h^−1) to prevent clotting.
Normal saline in increasing volumes (0.05, 0.1, 0.2 ml) was injected in four rabbits as a control group. […] In order to minimize the effect of the previous drug, the cavernous body was flushed with 0.2 ml normal saline before each injection and the time interval between each injection was at least 1.5 h.
Measurement of intracavernous pressure Male rabbits were used for the investigation. After sedation with an intramuscular injection of ketamine (10 mg kg^−1), the rabbits were anaesthetized with intraperitoneal pentobarbital (30 mg kg^−1) and maintained with 10 mg kg^−1 if needed. The animals breathed spontaneously. The rabbits were then placed in the supine position, and the body temperature was maintained at 37° C. The femoral artery was cannulated for continuous monitoring of systemic arterial pressure (SAP) and heart rate (HR) via a pressure transducer (Spectramed, Model P10EZ, U.S.A.). Under sterile conditions, the skin overlying the penis was incised and the corpora cavernosum was exposed at the root of the penis. A 25-gunge needle was inserted into the CCSMs for pressure recording. The needle was connected to a three-way stopcock, thus permitting the intracavernous injection of the drugs. The tube was filled with heparinized saline (50 IU 2 h^−1) to prevent clotting.

[3] = tested on: rabbit corpus cavernosum smooth muscle cells; experiment: Intracellular cGMP content in rabbit corpus cavernosum smooth muscle cells; assay type: cell-based; conditions: for cGMP levels: 0.01–10 μM; for cGMP levels / guanosine 3′,5′-cyclic monophosphate levels: in the presence of IBMX (100 μM); for guanosine 3′,5′-cyclic monophosphate levels: 0.1, 1.0, 10, 100 μM
Method: (§1) Culture of rabbit corpus cavernosum smooth muscle cells Rabbit corpus cavernosum smooth muscles were obtained as sterile surgical specimens, the tissue was washed and cut into 1 to 2 mm pieces and placed into culture dishes with Dulbecco's modified Eagle's medium (DMEM) containing 20% fetal bovine serum (FBS), penicillin (100 U ml^−1), streptomycin (100 U ml^−1) and 2 mM Glutamine. After explants attached to the culture dish, usually 1 to 2 days, DMEM (Dulbecco's modified Eagle's medium) supplement with 10% FBS, penicillin, streptomycin, and glutamine were added. Smooth muscle cells migrated out from the explants in 3–5 days. At this time, the explants were removed, and cells were allowed to achieve confluence. Cells were detached using 0.05% trypsin, 0.02% EDTA at 37° C. for 5 minutes to establish secondary cultures. Cultures were maintained for no more than 4 passages. Cellular homogeneity was further confirmed by the presence of smooth muscle specific α-myosin and α-actin immunoreactivity. Indirect immunofluorescence staining for a variety of antigens was carried out by first plating the cells on chamber slides fixing the cells in 3.7% formaldehyde-phosphate buffered saline for 10 minutes and permeabilizing the cells with phosphate buffered saline 0.1% Triton X-100. Cells were then stained with either a mouse monoclonal antibody directed against the amino terminal 10 amino acids of α-smooth muscle actin and α-myosin (Moreland R. B. et al., J Urol., 153, 826–834, 1995).
Measurement of intracellular guanosine 3′,5′-cyclic monophosphate content Intracellular cGMP concentrations in rabbit corpus cavernosum smooth muscle cells were assayed as our previously described (Wu et al., 2001). In brief, cells were finally grown in 24-well plates (10^5 cells well^−1). […] Incubation was terminated by the addition of 6% trichloroacetic acid (TCA). Cell suspensions were sonicated and then centrifuged at 2500 g for 15 min at 4° C. Then, the supernatants were lyophilized and cGMP of each sample was determined using a commercially available radioimmunoassay kits (Amersham Pharmacia Biotech, Buckinghamshire, England).
as §1, with “Rabbit CCSMs (corpus” for “Rabbit corpus”, “smooth muscles)” for “smooth muscles”, “DMEM” for “DMEM (Dulbecco's modified Eagle's medium)”, “(Moreland” for “(Moreland R. B.”, “al.,” for “al., J Urol., 153, 826–834,”
Measurement of intracellular cyclic GMP content Intracellular cGMP concentrations in rabbit CCSM cells were assayed as our previously described (Wu et al., 2001). In brief, cells were finally grown in 24-well plates (10^5 cells well^−1). […] Incubation was terminated by the addition of 6% trichloroacetic acid (TCA). Cell suspensions were sonicated and then centrifuged at 2500 g for 15 min at 4° C. […]

rabbit aortic rings = experiment: Relaxation of phenylephrine-precontracted rabbit aortic rings; assay type: cell-based
[4] = tested on: rabbit corpus cavernosum smooth muscle; experiment: Rabbit corpus cavernosum smooth muscle relaxation, organ bath; assay type: cell-based
Excerpt: (§2) Disruption of endothelium The endothelium lining the lacunar spaces of rabbit corpus cavernosum was disrupted and/or removed by detergent treatment using a modification of a protocol for blood vessels, described elsewhere (kim N. et al., J. Clin. Invest., 88, 112–118, 1991). The intact, isolated penis was placed in a tray containing chilled physiological salt solution (PSS). A 21-guage minicatheter was inserted into each corporal body at the proximal end of the penis. A third minicatheter was inserted into the distal end, below the glans penis, where the right and left corpora communicate. While the distal and one proximal minicatheter were clamped, 3 ml of CHAPS (wt vol.^−) in saline was infused into the remaining proximal catheter. After a short interval (˜20 s), the clamped minicatheters were opened and the preparation was washed by infusion of saline. The corpora cavernosa were then removed and tested for endothelial integrity.
Tissue procurement and organ bath experiments Male rabbits were killed with pentobarbital and their penises excised rapidly and cut longitudinally into equal strips to give 3–6 segments. These segments were incubated in Kerbs-bicarbontate solution (NaCl, 118 mM; NaHCO3, 25 mM; KCl, 4.7 mM; KH2PO4, 1.2 mM; MgSO4, 1.2 mM; glucose, 11 mM; CaCl2, 2.5 mM; pH 7.3–7.4) maintained at 37° C. and aerated with 95% O2 and 5% CO2. Isometric tension was recorded with a force displacement transducer (UGO BASILE, Model 7004, Italy). Rabbit corpus cavernosum smooth muscles were stretched to a resting tension of 2 g and then contracted with phenylephrine (PE, 10 μM). Tissues were also treated with guanethidine (10 μM) to block contractions caused by noradrenaline, released from adrenergic neuron, and treated with atropine (1 μM) to prevent muscarinic effects caused by acetylcholine. When the stable constriction to phenylephrine was reached, concentration-response curves to KMUP-1 (0.001–10 μM) were constructed. Data were expressed as a percentage of the maximum contractile response to phenylephrine. To examine the possible action mechanisms of KMUP-1, the rabbit corpus cavernosum smooth muscles were pretreated with sGC (soluble guanylyl cyclase) inhibitors ODQ (1 μM), a NOS (nitric oxide synthase) inhibitor L-NAME (100 μM), a K^+ channel blocker Tetraethylammonium (TEA, 10 mM), a KATP channel blocker glibenclamide (1 μM), a voltage-dependent K^+ channel blocker 4-AP (100 μM) and Ca^2+-dpendent K^+ channel blockers apamin (1 μM) and charybdotoxin (0.1 μM) for 30 min prior to the addition of KMUP-1. To observe whether the rabbits corpus cavernosum smooth muscle relaxation of KMUP-1 are affected by a nonselective PDE (phosphodiesterase) inhibitor, we investigated the action of KMUP-1 in the presence of IBMX (0.5 μM). In another experiment, rabbit corpus cavernosum smooth muscles were preconstricted with 60 mM KCl. The KCl solution was prepared by substituting NaCl with KCl (60 mM) in an equimolar amount.
as §2, with “(kim” for “(kim N.”, “al.,” for “al., J. Clin. Invest., 88, 112–118,”, “vol.^−1)” for “vol.^−)”, “integrity. […]” for “integrity.”

[5] = tested on: PDE (phosphodiesterase) in human platelets; experiment: Phosphodiesterase assay, soluble PDE from human platelets, cyclic GMP substrate; assay type: biochemical; conditions: at 100 μM, n=3
Method: Phosphodiesterase assay. Human platelets were isolated from whole blood using 50 mM Tris-HCl containg 5 mM MgCl2 (pH 7.5) and centrifuged to prepare platelet rich plasma. Washed human platelets were resuspended in 50 mM Tris-HCl containg 5 mM MgCl2 (pH 7.5). Platelets were then disrupted by sonicatio, and soluble PDE preparation was obtained by ultracentrifugation 105000 g for 60 min (4° C). […] After 20 min at 37° C., the samples were heated to 100° C. for 2 min. Ophiophagus Hannah snake venom (10 mg/ml, 10 μl) was then added and incubated at 37 C. for 10 min to convert the 5-GMP to the unchanged nucleosides, guanosine. An ion-exchange resin (200 μl) was added to bind all uncoverted cyclic GMP. After centrifuging, the supernatant was removed for determination in a liquid scintillation counter.

[6] = Learning and memory behavioral tasks (Morris water maze, passive inhibitory and active avoidance, rotorod); assay type: in vivo
Excerpt: Long-term potentiation (LTP) is a potential cellular mechanism underlying learning and memory. Nitric oxide (NO) acts as a retrograde messenger and its downstream effectors are also involved in the modulation of synaptic plasticity in various brain regions such as hippocampus, amygdala, cerebellum, brain stem, cortex etc. Although nitric oxide (NO) is thought to affect synaptic potentiation in various brain regions, the NO-cGMP-PKG pathway involved in memory acquisition in living animals is still unclear. […]. The stimulating parameter which induced long-lasting depression was shifted to a lower frequency by theophylline-based derivative. Furthermore, simultaneous perfusion of theophylline-based derivatives with different concentration of NO donor induced LTP or LTD when the hippocampal slices were stimulated at a frequency as low as 0.02 Hz. The effects of theophylline-based derivative on the behavioral tasks in the following anomal models were examined: Morris water maze, passive inhibitory and active avoidance tests, and rotorod test. […] KMUP-1 injected (1 mg/kg,i.p.) 10 min before the training shortened the escape latency in water maze, increased the retention scores in passive inhibitory avoidance task, decreased the retention time in active avoidance test, and enhanced the motor coorfination in the examination of rotorod. […] YC-1 thus enhanced LTP, learning and memory in an NO-cGMP-PKG-dependent pathway and is a promising drug to enhance learning and memory in human being.

[7] = 0.2 mg/kg intracavernous injection
[8] = 0.4 mg/kg intracavernous injection
[9] = 0.6 mg/kg intracavernous injection
[10] = in the presence of IBMX (0.5 μM)
[11] = pretreatments with methylene blue (100 μM) and ODQ (10 μM)
[12] = 1 mg/kg i.p. 10 min before the training

CCCc1nn(C)c2c(=O)[nH]c(-c3cc(S(=O)(=O)N4CCN(C)CC4)ccc3OCC)nc12 [sildenafil, reference compound]
guanosine 3′,5′-cyclic monophosphate levels [1]: significant elevation | DT, duration of tumescence [2, 7]: 19 ± 3.32 min | ΔICP, peak increased intracavernous pressure [2, 7]: 28 ± 3.21 mmHg | DT, duration of tumescence [2, 8]: 24 ± 3.45 min | ΔICP, peak increased intracavernous pressure [2, 8]: 32 ± 4.05 mmHg | DT, duration of tumescence [2, 9]: 28 ± 4.59 min | ΔICP, peak increased intracavernous pressure [2, 9]: 40 ± 11.05 mmHg | intracavernous pressure, dose dependence [2]: dose-dependent elevations | cGMP levels [3]: increased the cGMP levels | guanosine 3′,5′-cyclic monophosphate levels [3]: significant elevation

COc1ccccc1N1CCN(CCn2cnc3c2c(=O)n(C)c(=O)n3C)CC1 [KMUP-2, 7-[2-[4-(2-methoxyphenyl)piperazinyl]-ethyl]-1,3-dimethylxanthine]
−log EC50 of relaxation in aortic rings (rabbit aortic rings; KMUP-2 (0.01, 0.05, 0.1 μM) alone): 5.69±0.02 | −log EC50 of relaxation in aortic rings (rabbit aortic rings; [10]): 6.61±0.12 | guanosine 3′,5′-cyclic monophosphate levels [1]: significantly increased | cGMP levels after methylene blue and ODQ pretreatments [1, 11]: significantly inhibited | relaxant activities in rabbit CCSMs [4]: concentration-dependent relaxant activities | effect of combination with IBMX on CCSMs relaxations [4]: additive effect | −log EC50 of relaxation ([4]; compound alone, IBMX additive experiment (FIG. 6)): 7.58±0.02 | −log EC50 of relaxation [4, 10]: 8.37±0.03 | guanosine 3′,5′-cyclic monophosphate levels [3]: significantly increased | cGMP levels after methylene blue and ODQ pretreatments [3, 11]: significantly inhibited | inhibition of PDE activity [5]: 21±2.1%

Cn1c(=O)c2c(ncn2CCN2CCN(c3ccccc3Cl)CC2)n(C)c1=O [KMUP-1, 7-[2-[4-(2-chlorophenyl)piperazinyl]-ethyl]-1,3-dimethylxanthine]
relaxant activities in rabbit CCSMs [4]: concentration-dependent relaxant activities | relaxation in endothelium-denuded (EC−) corpus cavernosum smooth muscle ([4]; 0.001–10 μM, endothelium-denuded): concentration-dependent relaxations | −log EC50 of relaxation ([4]; after K+ channel blocker TEA (10 mM)): 5.37±0.05 | −log EC50 of relaxation ([4]; after KATP channel blocker glibenclamide (1 μM)): 6.57±0.15 | −log EC50 of relaxation ([4]; after NOS inhibitor L-NAME (100 μM)): 6.51±0.08 | −log EC50 of relaxation ([4]; after apamin (1 μM)): 5.85±0.11 | −log EC50 of relaxation ([4]; after charybdotoxin (0.1 μM)): 5.63±0.09 | −log EC50 of relaxation ([4]; after sGC inhibitor ODQ (1 μM)): 6.79±0.12 | −log EC50 of relaxation ([4]; after voltage-dependent K+ channel blocker 4-AP (100 μM)): 5.83±0.17 | relaxation of corpus cavernosum smooth muscle strips ([4]; at 10 μM): completely relaxed | effect of combination with IBMX on CCSMs relaxations [4]: additive effect | −log EC50 of relaxation ([4]; endothelium-intact (EC+), phenylephrine (10 μM)-precontracted, no blocker): 7.19±0.09 | relaxation in the presence of high K+ ([4]; high K+ (60 mM), 0.001–10 μM): great reduction of relaxation | −log EC50 of relaxation [4, 10]: 8.65±0.14 | DT, duration of tumescence [2, 7]: 15 ± 2.24 min | ΔICP, peak increased intracavernous pressure [2, 7]: 30 ± 5.25 mmHg | DT, duration of tumescence [2, 8]: 27 ± 2.05 min | ΔICP, peak increased intracavernous pressure [2, 8]: 55 ± 6.21 mmHg | DT, duration of tumescence [2, 9]: 35 ± 3.45 min | ΔICP, peak increased intracavernous pressure [2, 9]: 67 ± 12.32 mmHg | intracavernous pressure, dose dependence [2]: dose-dependent elevations | HR (heart rate) ([2]; rabbit, in vivo): unchanged | SAP (systemic arterial pressure) ([2]; rabbit, in vivo): unchanged | escape latency in water maze [6, 12]: shortened | motor coordination in rotorod [6, 12]: enhanced | retention scores in passive inhibitory avoidance task [6, 12]: increased | retention time in active avoidance test [6, 12]: decreased | retention of passive inhibitory avoidance ([6]; given 30 min after foot-shock): did not affect | cGMP levels [3]: increased the cGMP levels | cGMP levels after ODQ pretreatment ([3]; pretreatment with ODQ (10 μM)): inhibited | inhibition of PDE activity [5]: 29±3.1%

Reference: patent US6979687B1, “Theophylline-based soluble guanylyl cyclase activators KMUP-1 analogues enhanced cyclic GMP and K+ channel activities on rabbit corpus cavernosum smooth muscle and intercavernous pressure activities” (Cho-Jan Liang, priority 2002, dated 2005)
